Ki data for 38 compounds are collected here from patent US20030095958A1, “Inhibitors of bace” (priority 2001, published 2003).

For the test, the target named is BACE (Homo sapiens, UniProt P56817). In words: Ki Determination for the Inhibition of BACE (FS-1 peptide fluorescence cleavage assay). It is filed as biochemical. The following applies: apparent Ki; 50 nM BACE, 10 μM FS-1 substrate, 0.1M sodium acetate pH 4.5. A digest of the protocol: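 Human BACE (50 nM) was preincubated 15 min at room temperature with compound (2% DMSO) in 0.1 M sodium acetate pH 4.5, then 10 μM FS-1 peptide was added. Cleavage was followed by fluorescence (ex 355/em 495 nm), and apparent Ki came from fitting to the integrated competitive tight-binding inhibition equation.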
Chain of BACE (P56817 46-501): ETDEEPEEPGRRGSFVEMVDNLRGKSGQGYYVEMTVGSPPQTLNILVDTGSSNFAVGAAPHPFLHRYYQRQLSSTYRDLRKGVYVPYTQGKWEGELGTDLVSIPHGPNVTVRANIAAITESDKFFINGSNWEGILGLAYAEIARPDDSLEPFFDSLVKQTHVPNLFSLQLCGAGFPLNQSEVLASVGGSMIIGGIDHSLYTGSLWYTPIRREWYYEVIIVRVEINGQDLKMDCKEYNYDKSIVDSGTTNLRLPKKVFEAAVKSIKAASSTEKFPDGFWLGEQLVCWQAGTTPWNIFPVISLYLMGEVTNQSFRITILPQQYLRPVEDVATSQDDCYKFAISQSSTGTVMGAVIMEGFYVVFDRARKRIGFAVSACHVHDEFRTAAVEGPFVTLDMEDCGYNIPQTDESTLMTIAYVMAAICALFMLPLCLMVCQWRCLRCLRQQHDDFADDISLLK

As for `COC(=O)c1cccc(-c2cc(COc3ccccc3C(F)(F)F)c(C3=CCNCC3)cc2COc2ccccc2C(F)(F)F)c1` [Compound 368, 4′-(1,2,3,6-Tetrahydro-pyridin-4-yl)-2′,5′-bis-(2-trifluoromethyl-phenoxymethyl)-biphenyl-3-carboxylic acid methyl ester], the Ki was below 3 µM.
The result for `COC(=O)c1ccc(-c2cc(COc3ccccc3C(F)(F)F)c(C3=CCNCC3)cc2COc2ccccc2C(F)(F)F)cc1` [Compound 369, 4′-(1,2,3,6-Tetrahydro-pyridin-4-yl)-2′,5′-bis-(2-trifluoromethyl-phenoxymethyl)-biphenyl-4-carboxylic acid methyl ester] reads below 3 µM.
As for `O=C(OCc1ccccc1-c1cc(COc2ccccc2C(F)(F)F)c(C2=CCNCC2)cc1COc1ccccc1C(F)(F)F)c1ccco1` [Compound 370, Furan-2-carboxylic acid 4′-(1,2,3,6-tetrahydro-pyridin-4-yl)-2′,5′-bis-(2-trifluoromethyl-phenoxymethyl)-biphenyl-2-ylmethyl ester], the figure is below 3 µM; as for `FC(F)(F)c1ccccc1OCc1cc(C2=CCNCC2)ccc1C1=CCNCC1` [Compound 371, 4-[4-(1,2,3,6-Tetrahydro-pyridin-4-yl)-2-(2-trifluoromethyl-phenoxymethyl)-phenyl]-1,2,5,6-tetrahydro-pyridine], 3 to 30 µM.
As for `Fc1ccccc1-c1ccc(C2=CCNCC2)c(COc2ccccc2C(F)(F)F)c1` [Compound 372, 4-[2′-Fluoro-3-(2-trifluoromethyl-phenoxymethyl)-biphenyl-4-yl]-1,2,3,6-tetrahydro-pyridine], the figure is below 3 µM; as for `FC(F)(F)c1ccccc1OCc1cc(-c2ccccc2Cl)ccc1C1=CCNCC1` [Compound 373, 4-[2′-Chloro-3-(2-trifluoromethyl-phenoxymethyl)-biphenyl-4-yl]-1,2,3,6-tetrahydro-pyridine], below 3 µM.
On to `Cc1ccccc1-c1ccc(C2=CCNCC2)c(COc2ccccc2C(F)(F)F)c1` [Compound 374, 4-[2′-Methyl-3-(2-trifluoromethyl-phenoxymethyl)-biphenyl-4-yl]-1,2,3,6-tetrahydro-pyridine], for which the Ki was below 3 µM.
Regarding `FC(F)(F)c1ccccc1OCc1cc(-c2ccccc2C(F)(F)F)ccc1C1=CCNCC1` [Compound 375, 4-[2′-Trifluoromethyl-3-(2-trifluoromethyl-phenoxymethyl)-biphenyl-4-yl]-1,2,3,6-tetrahydro-pyridine], the Ki is below 3 µM.
On to `Nc1ccccc1-c1ccc(C2=CCNCC2)c(COc2ccccc2C(F)(F)F)c1` [Compound 376, 4′-(1,2,3,6-Tetrahydro-pyridin-4-yl)-3′-(2-trifluoromethyl-phenoxymethyl)-biphenyl-2-ylamine], for which the Ki lay within 3 to 30 µM.
As for `FC(F)(F)c1ccccc1OCc1cc(Br)ccc1C1=CCNCC1` [Compound 377, 4-[4-Bromo-2-(2-trifluoromethyl-phenoxymethyl)-phenyl]-1,2,3,6-tetrahydro-pyridine], the figure is 3 to 30 µM; as for `OCc1ccccc1-c1ccc(C2=CCNCC2)c(COc2ccccc2C(F)(F)F)c1` [Compound 378, [4′-(1,2,3,6-Tetrahydro-pyridin-4-yl)-3′-(2-trifluoromethyl-phenoxymethyl)-biphenyl-2-yl]-methanol], 3 to 30 µM.
The result for `O=C(OCc1ccccc1-c1ccc(C2=CCNCC2)c(COc2ccccc2C(F)(F)F)c1)c1ccccc1` [Compound 379, Benzoic acid 4′-(1,2,3,6-tetrahydro-pyridin-4-yl)-3′-(2-trifluoromethyl-phenoxymethyl)-biphenyl-2-yl methyl ester] reads below 3 µM; that for `O=C(OCc1ccccc1-c1ccc(C2=CCNCC2)c(COc2ccccc2C(F)(F)F)c1)c1ccccc1C(F)(F)F` [Compound 380, 2-Trifluoromethyl-benzoic acid 4′-(1,2,3,6-tetrahydro-pyridin-4-yl)-3′-(2-trifluoromethyl-phenoxymethyl)-biphenyl-2-ylmethyl ester], below 3 µM.
The result for `COC(=O)c1cc(C2=CCNCC2)c(COc2ccccc2C(F)(F)F)cc1Br` [Compound 381, 2-Bromo-5-(1,2,3,6-tetrahydro-pyridin-4-yl)-4-(2-trifluoromethyl-phenoxymethyl)-benzoic acid methyl ester] reads 3 to 30 µM; that for `COC(=O)c1cc(C2=CCNCC2)c(COc2ccccc2C(F)(F)F)cc1C1=CCNCC1` [Compound 382, 2,5-Bis-(1,2,3,6-tetrahydro-pyridin-4-yl)-4-(2-trifluoromethyl-phenoxymethyl)-benzoic acid methyl ester], 3 to 30 µM; that for `COC(=O)c1cc(C2=CCNCC2)c(COc2ccccc2C(F)(F)F)cc1-c1ccoc1` [Compound 383, 2-Furan-3-yl-5-(1,2,3,6-tetrahydro-pyridin-4-yl)-4-(2-trifluoromethyl-phenoxymethyl)-benzoic acid methyl ester], 3 to 30 µM.
For `O=C(OCc1ccccc1-c1ccc(C2=CCNCC2)c(COc2ccccc2C(F)(F)F)c1)c1cccnc1Cl` [Compound 384, 2-Chloro-nicotinic acid 4′-(1,2,3,6-tetrahydro-pyridin-4-yl)-3′-(2-trifluoromethyl-phenoxymethyl)-biphenyl-2-ylmethyl ester], the Ki is below 3 µM.
As for `O=C(OCc1cc(C2=CCNCC2)c(COc2ccccc2C(F)(F)F)cc1-c1ccoc1)c1cccnc1` [Compound 385, Nicotinic acid 2-furan-3-yl-5-(1,2,3,6-tetrahydro-pyridin-4-yl)-4-(2-trifluoromethyl-phenoxymethyl)-benzyl ester], the Ki was below 3 µM.
As for `O=C(OCc1cc(C2=CCNCC2)c(COc2ccccc2C(F)(F)F)cc1-c1ccoc1)c1cccnc1Cl` [Compound 386, 2-Chloro-nicotinic acid 2-furan-3-yl-5-(1,2,3,6-tetrahydro-pyridin-4-yl)-4-(2-trifluoromethyl-phenoxymethyl)-benzyl ester], the figure is below 3 µM; as for `OCc1cc(C2=CCNCC2)c(COc2ccccc2C(F)(F)F)cc1-c1ccoc1` [Compound 387, [2-Furan-3-yl-5-(1,2,3,6-tetrahydro-pyridin-4-yl)-4-(2-trifluoromethyl-phenoxymethyl)-phenyl]-methanol], 3 to 30 µM.
The result for `CN1CC=C(c2cc(CO)c(-c3ccoc3)cc2COc2ccccc2C(F)(F)F)CC1` [Compound 388, [2-Furan-3-yl-5-(1-methyl-1,2,3,6-tetrahydro-pyridin-4-yl)-4-(2-trifluoromethyl-phenoxymethyl)-phenyl]-methanol] reads 3 to 30 µM; that for `O=C(OCc1cc(C2=CCNCC2)c(COc2ccccc2C(F)(F)F)cc1-c1ccoc1)c1ccccn1` [Compound 389, Pyridine-2-carboxylic acid 2-furan-3-yl-5-(1,2,3,6-tetrahydro-pyridin-4-yl)-4-(2-trifluoromethyl-phenoxymethyl)-benzyl ester], 3 to 30 µM.
`O=C(OCc1cc(C2=CCNCC2)c(COc2ccccc2C(F)(F)F)cc1-c1ccoc1)c1ccncc1` [Compound 390, Isonicotinic acid 2-furan-3-yl-5-(1,2,3,6-tetrahydro-pyridin-4-yl)-4-(2-trifluoromethyl-phenoxymethyl)-benzyl ester]: the Ki was below 3 µM.
On to `c1ccc(-c2ccc(C3CCNCC3OCc3ccc4ccccc4c3)cc2)cc1` (centres unmarked) [Compound 401], for which the Ki is below 3 µM.
The result for `O=C(Nc1ccc2ccccc2c1)C1CNCCC1c1ccc(-c2ccccc2)cc1` (centres unmarked) [Compound 402] reads below 3 µM; that for `O=C(Nc1ccc2ccccc2c1)NC1CNCCC1c1ccc(-c2ccccc2)cc1` (centres unmarked) [Compound 403], 3 to 30 µM; that for `CC(NC(=O)C1CNCCC1c1ccc(-c2ccccc2)cc1)c1cccc2ccccc12` (centres unmarked) [Compound 404], 3 to 30 µM.
The result for `CC(NC(=O)C1CNCCC1c1ccc(-c2ccccc2)cc1)c1cccc2ccccc12` (centres unmarked) [Compound 405] reads 3 to 30 µM; that for `CC(NC(=O)C1CNCCC1c1ccc(-c2ccccc2)cc1)c1cccc2ccccc12` (centres unmarked) [Compound 406], 3 to 30 µM.
Consider `CC(NC(=O)C1CNCCC1c1ccc(-c2ccccc2)cc1)c1cccc2ccccc12` (centres unmarked) [Compound 407], for which the Ki was in the range of 3 to 30 µM.
As for `OC1CNCC(COc2ccc3ccccc3c2)C1(O)c1ccc(-c2ccccc2)cc1` (centres unmarked) [Compound 412], the figure is 3 to 30 µM; as for `FC(F)(F)c1cccc(COC2CNCC(COc3ccc4ccccc4c3)C2c2ccc(-c3ccccc3)cc2)c1` (centres unmarked) [Compound 413], below 3 µM; as for `COc1ccc2c(c1)c1c(n2C(=O)c2ccc3ccccc3c2)CNCC1` [Compound 502, (6-Methoxy-1,2,3,4-tetrahydro-b-carbolin-9-yl)-naphthalen-2-yl-methanone], above 30 µM.
Turning to `COc1ccc2c(c1)c1c(n2Cc2ccc3ccccc3c2)CNCC1` [Compound 503, 6-Methoxy-9-naphthalen-2-ylmethyl-2,3,4,9-tetrahydro-1H-b-carboline], the Ki is above 30 µM.
On to `O=C(c1cccc2ccccc12)n1c2c(c3cc(OCc4ccccc4C(F)(F)F)ccc31)CCNC2` [Compound 504, Naphthalen-1-yl-[6-(2-trifluoromethyl-benzyloxy)-1,2,3,4-tetrahydro-b-carbolin-9-yl]-methanone], for which the Ki is below 3 µM.
As for `FC(F)(F)c1ccccc1COc1ccc2c(c1)c1c(n2Cc2cccc3ccccc23)CNCC1` [Compound 505, 9-Naphthalen-1-ylmethyl-6-(2-trifluoromethyl-benzyloxy)-2,3,4,9-tetrahydro-1H-b-carboline], the figure is below 3 µM; as for `O=C(c1cccc2ccccc12)n1c2c(c3cc(OCc4ccc(C(F)(F)F)cc4)ccc31)CCNC2` [Compound 506, Naphthalen-1-yl-[6-(4-trifluoromethyl-benzyloxy)-1,2,3,4-tetrahydro-b-carbolin-9-yl]-methanone], below 3 µM.
As for `O=C(c1ccc2ccccc2c1)n1c2c(c3cc(OCc4cccc(C(F)(F)F)c4)ccc31)CCNC2` [Compound 507, Naphthalen-2-yl-[6-(3-trifluoromethyl-benzyloxy)-1,2,3,4-tetrahydro-b-carbolin-9-yl]-methanone], the figure is below 3 µM.
